How the values were obtained:
[1] = tested on: murine leukemia P-388; assay: Anticancer activity in mice with leukemia P-388, survival time (T/C); format: in vivo; conditions: for T/C (second value, in parentheses): not explained
Experimental: (§1) The following Table I sets forth the comparative results of the effectiveness of the parent antibiotic, daunorubicin, in the inhibition of the growth of the cancerous cells of murine leukemia P-388 in mice versus the anticancer activity of enamine derivatives of daunorubicin according to the present invention. ED50 denotes the concentration of the compound being tested leading to 50 percent inhibition of cancerous cell growth at 48 hours incubation time of the compound being tested. LD50 indicates the dosage of the tested compounds which cause death after 24 hours of one-half of the number of mice which have been intraperitonically administered the subject compound. T/C in percent represents the ratio of mean survival time of the group of treated mice versus the group of untreated mice.

[2] = Acute toxicity in mice after intraperitoneal administration (LD50, 24 hours); format: in vivo; conditions: mouse, in vivo, ip; mice, intraperitoneal, death of one-half after 24 hours
Experimental: as §1

[3] = tested on: mice; assay: as above; format: in vivo; conditions: daunorubicin versus the inventive derivatives
Experimental: as §1

[4] = tested on: cardiac muscle of rats; conditions: i.p., three dosage levels (0.2, 10, 20 mg/kg), H+E, light and polarizing microscopes; cited from earlier work
[5] = tested on: cardiac muscle of rats; assay: Examination of the cardiac muscle of rats after intraperitoneal administration (cardiotoxicity); format: in vivo; conditions: i.p., 0.2, 10 and 20 mg/kg, versus daunorubicin
Excerpt: Preparations from cardiac muscle tinted with H+E have been examined under light and polarizing microscopes.

| Structure (SMILES) | T/C ([1]; Dose (mg/kg) 3 130) [%] | T/C ([1]; Dose (mg/kg) 6 250) [%] | T/C ([1]; Dose (mg/kg) 12 500) [%] | T/C ([1]; Dose (mg/kg) 25 000) [%] | T/C ([1]; Dose (mg/kg) 50 000) [%] | LD50 at 24 h [2] [mg/kg] | dosage level of toxic effects [3] | subsegmentary contractions / disturbances in heart rhythm [4] | T/C (second value, in parentheses) ([1]; Dose (mg/kg) 25 000) [%] | T/C (second value, in parentheses) ([1]; Dose (mg/kg) 50 000) [%] | T/C ([1]; Dose (mg/kg) 100 000) [%] | T/C ([1]; Dose (mg/kg) 200 000) | morphological and ultrastructural changes to muscular tissue [5] |
| --- | --- | --- | --- | --- | --- | --- | --- | --- | --- | --- | --- | --- | --- |
| COc1cccc2c1C(=O)c1c(O)c3c(c(O)c1C2=O)C[C@@](O)(C(C)=O)C[C@@H]3O[C@H]1C[C@H](N)[C@H](O)[C@H](C)O1 [Daunorubicin, daunorubicin] | 108 | 112 | 112 | 127 | 102 | 135 | occur at a far lower dosage level as opposed to the inventive derivatives | leads to the formation of numerous subsegmentary contractions causing, in effect, disturbances in heart rhythm | – | – | – | – | – |
| CCOC(=O)C=C(C)N[C@H]1C[C@H](O[C@H]2C[C@](O)(C(C)=O)Cc3c(O)c4c(c(O)c32)C(=O)c2c(OC)cccc2C4=O)O[C@@H](C)[C@H]1O [N-(1-carboethoxy-propen-1-yl-2)-daunorubicin] | 94 | 103 | 103 | 115 | 132 | 500 | – | does not cause said disturbances, the cardiac muscle evidencing a regular and alternating system of isotropic and anizotropic fringes | 119 | 128 | 144 | 102% | considerably less morphological and ultrastructural changes to muscular tissue than does the initial daunorubicin |
| COc1cccc2c1C(=O)c1c(O)c3c(c(O)c1C2=O)C[C@@](O)(C(C)=O)C[C@@H]3O[C@H]1C[C@H](NC(C)=CC(C)=O)[C@H](O)[C@H](C)O1 [N--(penten-2-on-4 yl-2)-daunorubicin, N-(penten-2-on-4-yl-2) daunorubicin] | 131 | 110 | 119 | 125 | 118 | 500 | – | – | 131 | 144 | 147 | toxic | – |

— patent US4824944A, “Antineoplastic enamine derivatives of daunorubicin and adriamycin” (Politechnika Gdanska, priority 1987, dated 1989)
